Assay results from US11306078B2, “Piperidine CXCR7 receptor modulators” (IDORSIA PHARMACEUTICALS LTD., priority 2016, dated 2022).

Biological target: human chemokine receptor CXCR7 (Homo sapiens (Human), UniProt P25106)
Test: Tango CXCR7-bla U2OS beta-arrestin recruitment assay (beta-lactamase reporter, FRET), antagonism of CXCL12/SDF1-α;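 also: compounds preincubated 15 min before CXCL12 addition, then 22 h at 37 °C, FRET emission ratio read with CCF4-AM substrate after 2 h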
Type: cell-based
Settings: antagonistic effect on CXCR7; Tango CXCR7-bla U2OS cells, CXCL12/SDF1-α at its EC80

human chemokine receptor CXCR7, sequence (P25106 whole entry): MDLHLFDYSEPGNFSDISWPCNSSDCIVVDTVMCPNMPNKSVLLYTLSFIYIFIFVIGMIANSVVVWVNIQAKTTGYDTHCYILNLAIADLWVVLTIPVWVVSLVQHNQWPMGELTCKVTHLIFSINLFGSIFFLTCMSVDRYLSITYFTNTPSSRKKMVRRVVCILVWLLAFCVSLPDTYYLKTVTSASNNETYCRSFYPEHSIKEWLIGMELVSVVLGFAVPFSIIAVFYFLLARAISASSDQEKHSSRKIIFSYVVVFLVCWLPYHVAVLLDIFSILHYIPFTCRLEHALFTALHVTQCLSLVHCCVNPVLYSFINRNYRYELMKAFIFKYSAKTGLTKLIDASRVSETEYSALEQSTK

Structure (SMILES)	IC50
COCC(C)(C)NC(=O)[C@@H]1CN(CC2CC2)CC[C@H]1NC(=O)c1cc(-c2ccc(F)cc2F)no1 (racemic) [Example 1.151, rac-(3R*,4R*)-1-Cyclopropylmethyl-4-{[3-(2,4-difluoro-phenyl)-isoxazole-5-carbonyl]-amino}-piperidine-3-carboxylic acid (2-methoxy-1,1-dimethyl-ethyl)-amide]	554 nM
COCC(C)(C)NC(=O)[C@@H]1CN(C2CCCCC2)CC[C@H]1NC(=O)c1noc(-c2ccc(F)cc2F)n1 (racemic) [Example 1.152, rac-(3R*,4R*)-1-Cyclohexyl-4-{[5-(2,4-difluoro-phenyl)-[1,2,4]oxadiazole-3-carbonyl]-amino}-piperidine-3-carboxylic acid (2-methoxy-1,1-dimethyl-ethyl)-amide]	569 nM
COCC(C)(C)NC(=O)[C@@H]1CN(CC2CC2)CC[C@H]1NC(=O)c1noc(-c2ccc(F)cc2F)n1 (racemic) [Example 1.153, rac-(3R*,4R*)-1-Cyclopropylmethyl-4-{[5-(2,4-difluoro-phenyl)-[1,2,4]oxadiazole-3-carbonyl]-amino}-piperidine-3-carboxylic acid (2-methoxy-1,1-dimethyl-ethyl)-amide]	803 nM
O=C(N[C@@H]1CCN(CC2CC2)C[C@H]1C(=O)NC1(c2ccc(F)cn2)CC1)c1cc(-c2ccc(F)cc2F)no1 (racemic) [Example 1.163, rac-(3R*,4R*)-1-Cyclopropylmethyl-4-{[3-(2,4-difluoro-phenyl)-isoxazole-5-carbonyl]-amino}-piperidine-3-carboxylic acid [1-(5-fluoro-pyridin-2-yl)-cyclopropyl]-amide]	953 nM
O=C(N[C@@H]1CCN(C2CCCCC2)C[C@H]1C(=O)NC1(c2ccccn2)CC1)c1cn(-c2ccc(F)cc2F)nn1 (racemic) [Example 1.165, rac-(3R*,4R*)-1-Cyclohexyl-4-{[1-(2,4-difluoro-phenyl)-1H-[1,2,3]triazole-4-carbonyl]-amino}-piperidine-3-carboxylic acid (1-pyridin-2-yl-cyclopropyl)-amide]	92 nM
O=C(N[C@@H]1CCN(C2CCCC2)C[C@H]1C(=O)NC1(c2ccccn2)CC1)c1cn(-c2ccc(F)cc2F)nn1 (racemic) [Example 1.166, rac-(3R*,4R*)-1-Cyclopentyl-4-{[1-(2,4-difluoro-phenyl)-1H-[1,2,3]triazole-4-carbonyl]-amino}-piperidine-3-carboxylic acid (1-pyridin-2-yl-cyclopropyl)-amide]	52 nM
O=C(N[C@@H]1CCN(CC2CC2)C[C@H]1C(=O)NC1(c2ccccn2)CC1)c1cn(-c2ccc(F)cc2F)nn1 (racemic) [Example 1.167, rac-(3R*,4R*)-1-Cyclopropylmethyl-4-{[1-(2,4-difluoro-phenyl)-1H-[1,2,3]triazole-4-carbonyl]-amino}-piperidine-3-carboxylic acid (1-pyridin-2-yl-cyclopropyl)-amide]	134 nM
O=C(N[C@@H]1CCN(C2CCCCC2)C[C@H]1C(=O)NC1(c2ccccn2)CC1)c1cc(-c2c(F)cc(F)cc2F)on1 (racemic) [Example 1.169, rac-(3R*,4R*)-1-Cyclohexyl-4-{[5-(2,4,6-trifluoro-phenyl)-isoxazole-3-carbonyl]-amino}-piperidine-3-carboxylic acid (1-pyridin-2-yl-cyclopropyl)-amide]	5 nM
O=C(N[C@@H]1CCN(CC2CC2)C[C@H]1C(=O)NC1(c2ccccn2)CC1)c1cc(-c2c(F)cc(F)cc2F)on1 (racemic) [Example 1.171, rac-(3R*,4R*)-1-Cyclopropylmethyl-4-{[5-(2,4,6-trifluoro-phenyl)-isoxazole-3-carbonyl]-amino}-piperidine-3-carboxylic acid (1-pyridin-2-yl-cyclopropyl)-amide]	16 nM
O=C(N[C@@H]1CCN(C2CCCC2)C[C@H]1C(=O)NC1(c2ccccn2)CC1)c1cc(-c2ccc(F)cc2F)no1 (racemic) [Example 1.173, rac-(3R*,4R*)-1-Cyclopentyl-4-{[3-(2,4-difluoro-phenyl)-isoxazole-5-carbonyl]-amino}-piperidine-3-carboxylic acid (1-pyridin-2-yl-cyclopropyl)-amide]	110 nM
O=C(N[C@@H]1CCN(CC2CC2)C[C@H]1C(=O)NC1(c2ccccn2)CC1)c1cc(-c2ccc(F)cc2F)no1 (racemic) [Example 1.174, rac-(3R*,4R*)-1-Cyclopropylmethyl-4-{[3-(2,4-difluoro-phenyl)-isoxazole-5-carbonyl]-amino}-piperidine-3-carboxylic acid (1-pyridin-2-yl-cyclopropyl)-amide]	36 nM
O=C(N[C@@H]1CCN(C2CCCC2)C[C@H]1C(=O)NC1(c2ncccn2)CC1)c1cc(-c2c(F)cc(F)cc2F)on1 (racemic) [Example 1.176, rac-(3R*,4R*)-1-Cyclopentyl-4-{[5-(2,4,6-trifluoro-phenyl)-isoxazole-3-carbonyl]-amino}-piperidine-3-carboxylic acid (1-pyrimidin-2-yl-cyclopropyl)-amide]	6 nM
O=C(N[C@@H]1CCN(CC2CC2)C[C@H]1C(=O)NC1(c2ncccn2)CC1)c1cc(-c2c(F)cc(F)cc2F)on1 (racemic) [Example 1.177, rac-(3R*,4R*)-1-Cyclopropylmethyl-4-{[5-(2,4,6-trifluoro-phenyl)-isoxazole-3-carbonyl]-amino}-piperidine-3-carboxylic acid (1-pyrimidin-2-yl-cyclopropyl)-amide]	5 nM
CC(C)(C#N)NC(=O)[C@@H]1CN(C2CCCCC2)CC[C@H]1NC(=O)c1cc(-c2ccc(F)cc2F)on1 (racemic) [Example 1.183, rac-(3R*,4R*)-1-Cyclohexyl-4-{[5-(2,4-difluoro-phenyl)-isoxazole-3-carbonyl]-amino}-piperidine-3-carboxylic acid (cyano-dimethyl-methyl)-amide]	79 nM
O=C(N[C@@H]1CCN(CC2CC2)C[C@H]1C(=O)NC1(c2ncccn2)CC1)c1cc(-c2ccc(Cl)cc2Cl)on1 (racemic) [Example 1.189, rac-(3R*,4R*)-1-Cyclopropylmethyl-4-{[5-(2,4-dichloro-phenyl)-isoxazole-3-carbonyl]-amino}-piperidine-3-carboxylic acid (1-pyrimidin-2-yl-cyclopropyl)-amide]	36 nM
O=C(N[C@@H]1CCN(CC2CC2)C[C@H]1C(=O)NC1(c2ncccn2)CC1)c1cc(-c2c(F)cccc2F)on1 (racemic) [Example 1.191, rac-(3R*,4R*)-1-Cyclopropylmethyl-4-{[5-(2,6-difluoro-phenyl)-isoxazole-3-carbonyl]-amino}-piperidine-3-carboxylic acid (1-pyrimidin-2-yl-cyclopropyl)-amide]	186 nM
O=C(N[C@@H]1CCN(CC2CC2)C[C@H]1C(=O)NC1(c2ncccn2)CC1)c1cc(-c2ccc(C(F)(F)F)cc2)on1 (racemic) [Example 1.192, rac-(3R*,4R*)-1-Cyclopropylmethyl-4-{[5-(4-trifluoromethyl-phenyl)-isoxazole-3-carbonyl]-amino}-piperidine-3-carboxylic acid (1-pyrimidin-2-yl-cyclopropyl)-amide]	389 nM
O=C(N[C@@H]1CCN(CC2CC2)C[C@H]1C(=O)NC1(c2ncccn2)CC1)c1cc(-c2cccc(C(F)(F)F)c2)on1 (racemic) [Example 1.193, rac-(3R*,4R*)-1-Cyclopropylmethyl-4-{[5-(3-trifluoromethyl-phenyl)-isoxazole-3-carbonyl]-amino}-piperidine-3-carboxylic acid (1-pyrimidin-2-yl-cyclopropyl)-amide]	191 nM
COc1ccc(-c2cc(C(=O)N[C@@H]3CCN(CC4CC4)C[C@H]3C(=O)NC3(c4ncccn4)CC3)no2)c(F)c1 (racemic) [Example 1.195, rac-(3R*,4R*)-1-Cyclopropylmethyl-4-{[5-(2-fluoro-4-methoxy-phenyl)-isoxazole-3-carbonyl]-amino}-piperidine-3-carboxylic acid (1-pyrimidin-2-yl-cyclopropyl)-amide]	759 nM
O=C(N[C@@H]1CCN(CC2CC2)C[C@H]1C(=O)NC1(c2ncccn2)CC1)c1cc(-c2ccc(F)cn2)on1 (racemic) [Example 1.196, rac-(3R*,4R*)-1-Cyclopropylmethyl-4-{[5-(5-fluoro-pyridin-2-yl)-isoxazole-3-carbonyl]-amino}-piperidine-3-carboxylic acid (1-pyrimidin-2-yl-cyclopropyl)-amide]	575 nM
O=C(N[C@@H]1CCN(CC2CC2)C[C@H]1C(=O)NC1(c2ccccn2)CCC1)c1cc(-c2ccc(F)cc2F)on1 (racemic) [Example 1.197, rac-(3R*,4R*)-1-Cyclopropylmethyl-4-{[5-(2,4-difluoro-phenyl)-isoxazole-3-carbonyl]-amino}-piperidine-3-carboxylic acid (1-pyridin-2-yl-cyclobutyl)-amide]	11 nM
COc1ccccc1C1(NC(=O)[C@@H]2CN(CC3CC3)CC[C@H]2NC(=O)c2cc(-c3ccc(F)cc3F)on2)CC1 (racemic) [Example 1.198, rac-(3R*,4R*)-1-Cyclopropylmethyl-4-{[5-(2,4-difluoro-phenyl)-isoxazole-3-carbonyl]-amino}-piperidine-3-carboxylic acid [1-(2-methoxy-phenyl)-cyclopropyl]-amide]	52 nM
O=C(N[C@@H]1CCN(CC2CC2)C[C@H]1C(=O)NC1(c2ncccn2)CC1)c1cc(-c2cccc(F)c2F)on1 (racemic) [Example 1.199, rac-(3R*,4R*)-1-Cyclopropylmethyl-4-{[5-(2,3-difluoro-phenyl)-isoxazole-3-carbonyl]-amino}-piperidine-3-carboxylic acid (1-pyrimidin-2-yl-cyclopropyl)-amide]	273 nM
CC(C)N1CC[C@@H](NC(=O)c2cc(-c3ccc(F)cc3F)on2)[C@H](C(=O)N(C)C)C1 (racemic) [Example 2.001, rac-(3R*,4R*)-4-{[5-(2,4-Difluoro-phenyl)-isoxazole-3-carbonyl]-amino}-1-isopropyl-piperidine-3-carboxylic Acid Dimethylamide]	209 nM
